Usually half-life stands for the time needed for the level to fall by half in the phase considered. Low readings indicate fast loss, high ones slow loss. The Tmax is the time from dosing to the highest level. In general, Cmax refers to the maximum level reached in the sampled fluid or tissue.

Data set [1] is described as follows: Pharmacokinetics in Sprague Dawley rats, single subcutaneous or intravenous dose (incl. 10, 30, 100 nmol/kg dose response). It counts as in vivo. Conditions: for Tmax: read-out: Tmax.
In data set [2] the test system is MHC-II presented peptides on human dendritic cells. The data set is described as follows: MAPPS assay (MHC-Associated Peptide Proteomics). It counts as cell-based. Particulars: for peptides displayed on MHC-II complexes: human dendritic cells from normal donors. The procedure:
MAPPS profiles the MHC-II presented peptides on human dendritic cells treated with tested molecules. CD14+ cells, isolated from the PBMCs of normal human donors, were cultured and differentiated into immature DCs by incubation with IL-4 and GM-CSF. On day 4, culture media was replaced with fresh media containing tested molecules. On day 5, LPS was added to transform the cells into mature DCs. On day 6, cells were lysed in RIPA buffer with protease inhibitors. Immunoprecipitation of MHC-II complexes were performed using biotinylated anti-MHC-II antibody coupled to streptavidin beads. The bound complex was eluted and filtered. The isolated MHC-II peptides were analyzed by a mass spectrometer. Peptide identifications were generated by an internal proteomics pipeline using search algorithms with no enzyme and a bovine/human database with test sequences appended to the database. A KNIME workflow was used to process the identification files from the samples. Peptides identified from the test articles were aligned against the parent sequence of the test molecule. The output was used to determine the percentage of donors displaying MHC-II peptides from regions of the test molecule. Polypeptides comprising SEQ ID NOs:54, 49, 50, 29, 41, 45, 1, 22, 25 were tested in the MAPPs assay. […] Depending on the donors, up to three major clusters were observed, each slightly shifted from the others, altogether spanning residues 1-33.

[3] abbreviates: male, Sprague Dawley, rat, plasma, iv, 197 nmol/kg, single intravenous dose 197 nmol/kg, individual animal.
Where [4] appears, read: male, Sprague Dawley, rat, plasma, iv, 197 nmol/kg, single intravenous dose 197 nmol/kg, mean.
Where [5] appears, read: male, Sprague Dawley, rat, plasma, sc, 197 nmol/kg, single subcutaneous dose 197 nmol/kg, individual animal.
The mark [6] stands for this setting: male, Sprague Dawley, rat, plasma, sc, 197 nmol/kg, single subcutaneous dose 197 nmol/kg, mean.
Where [7] appears, read: single intravenous dose 197 nmol/kg, male Sprague Dawley rats, individual animal.
[8] abbreviates: single subcutaneous dose 197 nmol/kg, male Sprague Dawley rats, individual animal.
Setting [9] is: donors displaying MHC-II peptides / donors tested.
Setting [10] is: percentage of donors displaying MHC-II peptides.

Several values for one entry are separate records, joined by “and”; a condition that tells them apart may be missing. Equal values may be shown once. Read-outs that look alike come from different tables or passages of the source. *1 amine or outer side, *2 acyl side, *3 side chain or, on linkers, in order; H or OH if unused. Where a SMILES comes first, the peptide text is derived from it. Side-chain parts run from the residue outwards. [ ]: non-standard residue; d: D form. The star is where a group is joined. C20 diacid = O=C(O)CCCCCCCCCCCCCCCCCCC(=O)*; γGlu = O=C(O)[C@H](CCC(=O)[*:2])N[*:1]; NMeI = CC[C@H](C)[C@H](NC)C(=O)O; αMeL = CC(C)C[C@](C)(N)C(=O)O; AEEA = NCCOCCOCC(=O)O

Turning to `CC[C@H](C)[C@H](NC(C)=O)C(=O)N[C@H](C(=O)N[C@H](C(=O)N[C@@H](CO)C(=O)N[C@@](C)(CC(C)C)C(=O)N[C@@H](CC(=O)O)C(=O)N[C@@H](C(=O)N1CCC[C@H]1C(=O)N[C@H](C(=O)NCC(=O)N[C@@](C)(CC(C)C)C(=O)N[C@@H](CC(C)C)C(=O)N[C@@H](CCC(N)=O)C(=O)N[C@H](C(=O)N[C@@H](CCCCN)C(=O)N[C@@H](CC(C)C)C(=O)N[C@@H](CCC(=O)O)C(=O)N[C@@H](CCC(N)=O)C(=O)N[C@@H](CCC(=O)O)C(=O)N[C@@H](CCCNC(=N)N)C(=O)N[C@@H](C)C(=O)N[C@@H](CCC(=O)O)C(=O)N[C@@H](CCCCN)C(=O)N[C@@H](C)C(=O)N[C@@H](CCCNC(=N)N)C(=O)N[C@@H](CCC(N)=O)C(=O)N[C@@H](CCC(N)=O)C(=O)N[C@@H](C)C(=O)N[C@@H](CCCCNC(=O)COCCOCCNC(=O)COCCOCCNC(=O)CC[C@H](NC(=O)CCCCCCCCCCCCCCCCCCC(=O)O)C(=O)O)C(=O)N[C@@H](CCC(=O)O)C(=O)N[C@@H](CC(N)=O)C(=O)N[C@H](C(=O)N[C@@H](CCC(=O)O)C(=O)N[C@H](C(=O)N[C@@H](CC(C)C)C(=O)N[C@@H](C)C(=O)N[C@@H](CCC(N)=O)C(=O)N[C@H](C(N)=O)C(C)C)[C@@H](C)CC)[C@@H](C)O)[C@@H](C)CC)[C@@H](C)O)C(C)C)[C@@H](C)O)C(C)C` [SEQ ID NO: 29, Ac-IVTS αMeL D (D-Val) PTG αMeL LQIKLEQERAEKARQ QAK((2-[2-(2-Amino-ethoxy)-ethoxy]-acetyl)2-γE-CO-(CH2)18-CO2H)ENTEILAQV-NH2] (Ac-IVTS[αMeL]D[dV]PTG[αMeL]LQIKLEQERAEKARQQAK([AEEA-AEEA-γGlu-C20 diacid])ENTEILAQV-NH2), the results for the clearance in data set [1] (setting [3]) and in data set [1] (setting [4]) were 1.66 mL/h/kg and 1.47 mL/h/kg, respectively. For the same compound, the half-life was 41.7 h in data set [1] (setting [3]), 45.5 h in data set [1] (setting [4]), 52.8 h in data set [1] (setting [5]) and 47 h in data set [1] (setting [6]). The CL/F in data set [1] (male, Sprague Dawley, rat, plasma, sc, 197 nmol/kg, single subcutaneous dose 197 nmol/kg, individual animal, read-out: CL/F (converted)) is 2.35 mL/h/kg; in data set [1] (male, Sprague Dawley, rat, plasma, sc, 197 nmol/kg, single subcutaneous dose 197 nmol/kg, mean, read-out: CL/F (converted)) it was 2.48 mL/h/kg; in data set [1] (setting [8]) it was 2.61 mL/h/kg. Moreover, the Tmax in data set [1] (setting [5]) and in data set [1] (setting [6]) was 24 h throughout. Also, the AUC0-inf was 89.9 µM·h in data set [1] (rat, plasma, sc, single subcutaneous dose 197 nmol/kg, male Sprague Dawley rats, mean, read-out: AUC0-inf); 136 µM·h in data set [1] (rat, plasma, single intravenous dose 197 nmol/kg, male Sprague Dawley rats, mean, read-out: AUC0-inf); 119 µM·h and 152 µM·h and 136 µM·h in data set [1] (setting [7]); 96.8 µM·h and 82.9 µM·h in data set [1] (setting [8]). For the same compound, the Cmax in data set [1] (rat, plasma, sc, single subcutaneous dose 197 nmol/kg, male Sprague Dawley rats, mean, read-out: Cmax) is 815 nM; in data set [1] (setting [8]) it was 881 nM and 749 nM. The C0 is 4270 nM in data set [1] (rat, plasma, single intravenous dose 197 nmol/kg, male Sprague Dawley rats, mean, read-out: C0); 6910 nM and 4840 nM and 1050 nM in data set [1] (setting [7]). Also, the CL in data set [1] (setting [7]) is 1.30 mL/h/kg and 1.45 mL/h/kg. In addition, the T1/2 in data set [1] (setting [7]) is 45.2 h and 49.6 h; in data set [1] (setting [8]) it was 41.1 h. The figures for the “MAPPS Assay >10 donors with diverse MHC” value in data set [2] (setting [9]) and in data set [2] (setting [10]) were 8/30 and 27%, respectively. For the same compound, the “peptides displayed on MHC-II complexes” value in data set [2] is listed as “at least one peptide cluster on MHC-II complexes in a subset of donors”. The “immunogenicity compared with SEQ ID NO:54” value in data set [2] (in the MAPPs assay and/or the T cell proliferation assay) is listed as “substantial improvements in immunogenicity over a compound comprising SEQ ID NO:54”.

In the case of `CC[C@H](C)[C@H](NC)C(=O)N[C@H](C(=O)N[C@@H](CC(C)C)C(=O)N[C@@H](CO)C(=O)N[C@@H](CC(C)C)C(=O)N[C@@H](CC(=O)O)C(=O)N[C@H](C(=O)N1CCC[C@H]1C(=O)N[C@H](C(=O)NCC(=O)N[C@@H](CC(C)C)C(=O)N[C@@H](CC(C)C)C(=O)N[C@@H](CCC(N)=O)C(=O)N[C@H](C(=O)N[C@@H](CC(C)C)C(=O)N[C@@H](CC(C)C)C(=O)N[C@@H](CCC(=O)O)C(=O)N[C@@H](CCC(N)=O)C(=O)N[C@@H](CCC(=O)O)C(=O)N[C@@H](CCCCN)C(=O)N[C@@H](CCC(N)=O)C(=O)N[C@@H](CCC(=O)O)C(=O)N[C@@H](CCCCN)C(=O)N[C@@H](CCC(=O)O)C(=O)N[C@@H](CCCCN)C(=O)N[C@@H](CCC(N)=O)C(=O)N[C@@H](CCC(N)=O)C(=O)N[C@@H](C)C(=O)N[C@@H](CCCCNC(=O)COCCOCCNC(=O)COCCOCCNC(=O)CC[C@H](NC(=O)CC[C@H](NC(=O)CCCCCCCCCCCCCCCCCCC(=O)O)C(=O)O)C(=O)O)C(=O)N[C@H](C(=O)N[C@@H](CC(N)=O)C(=O)N[C@@H](C)C(=O)N[C@@H](CCC(N)=O)C(=O)N[C@H](C(=O)N[C@@H](CC(C)C)C(=O)N[C@@H](C)C(=O)N[C@@H](CCC(N)=O)C(=O)N[C@H](C(N)=O)C(C)C)[C@@H](C)CC)[C@@H](C)O)[C@@H](C)CC)[C@@H](C)CC)C(C)C)C(C)C` [SEQ ID NO: 54] (H-[NMeI]VLSLDVPIGLLQILLEQEKQEKEKQQAK([AEEA-AEEA-γGlu-γGlu-C20 diacid])TNAQILAQV-NH2), the entries for the “MAPPS Assay >10 donors with diverse MHC” value in data set [2] (setting [9]) and in data set [2] (setting [10]) were 7/10 and 70%, respectively. Further, the “peptides displayed on MHC-II complexes” value in data set [2] was “at least one peptide cluster on MHC-II complexes in a subset of donors”.

Values taken from patent US20250163119A1, “COMPOUNDS FOR THE TREATMENT OF DIABETES OR OBESITY” (Eli Lilly and Company, priority 2023, published 2025).
